This is an account of results in US20240417405A1, “Substituted Spiro Derivatives” (Janssen Pharmaceutica NV, priority 2021, published 2024).

SMILES strings stand for the structures.

The subject of one test is MOLM14 cells. The experiment in a line: Proliferation assay, spheroid-like growth, MOLM14 (MLL-AF9 rearranged). The test is classed as cell-based, human. The conditions noted are these: Homo sapiens, MOLM-14, 192 h, 8 days, confluence as measure of spheroid size, read-out: spheroid assay_OneTime MOLM14 IC50. Here is the method:
The anti-proliferative effect of menin/MLL protein/protein interaction inhibitor test compounds was assessed in human leukemia cell lines. The cell line MOLM14 harbors a MLL translocation and expresses the MLL fusion proteins MLL-AF9, respectively, as well as the wildtype protein from the second allele. […] KO-52 was used as a control cell line containing two MLL (KMT2A) wildtype alleles in order to exclude compounds that display general cytotoxic effects.
MOLM14 cells were cultured in RPMI-1640 (Sigma Aldrich) supplemented with 10% heat-inactivated fetal bovine serum (HyClone), 2 mM L-glutamine (Sigma Aldrich) and 50 μg/ml gentamycin (Gibco). KO-52 cell lines were propagated in alpha-MEM (Sigma Aldrich) supplemented with 20% heat-inactivated fetal bovine serum (HyClone), 2 mM L-glutamine (Sigma Aldrich) and 50 μg/ml gentamycin (Gibco).
In order to assess the anti-proliferative effects, 200 MOLM14 cells, or 300 KO-52 cells were seeded in 200 μl media per well in 96-well round bottom, ultra-low attachment plates (Costar, catalogue number 7007). Cell seeding numbers were chosen based on growth curves to ensure linear growth throughout the experiment. Test compounds were added at different concentrations and the DMSO content was normalized to 0.3%. Cells were incubated for 8 days at 37° C. and 5% CO2. Spheroid like growth was measured in real-time by live-cell imaging (IncuCyteZOOM, Essenbio, 4× objective) acquiring images at day 8. Confluence (%) as a measure of spheroid size was determined using an integrated analysis tool.
In order to determine the effect of the test compounds over time, the confluence in each well as a measure of spheroid size, was calculated. Confluence of the highest dose of a reference compound was used as baseline for the LC (Low control) and the confluence of DMSO treated cells was used as 0% cytotoxicity (High Control, HC).
Absolute IC50 values were calculated as percent change in confluence as follows:
LC=Low Control: cells treated with e.g. 1 μM of the cytotoxic agent staurosporin, or e.g. cells treated with a high concentration of an alternative reference compound
GraphPad Prism (version 7.00) was used to calculate the IC50. Dose-response equation was used for the plot of % Effect vs Log 10 compound concentration with a variable slope and fixing the maximum to 100% and the minimum to 0%.

Test [1] addresses T1, menin/MLL (terbium chelate-labeled menin, FITC-MBM1 peptide) (Homo sapiens, UniProt O00255, T541A).
T1 construct: Menin (a.a 1-610-6xhis tag)
T1 sequence (O00255 with tags, fused parts or gaps T541A): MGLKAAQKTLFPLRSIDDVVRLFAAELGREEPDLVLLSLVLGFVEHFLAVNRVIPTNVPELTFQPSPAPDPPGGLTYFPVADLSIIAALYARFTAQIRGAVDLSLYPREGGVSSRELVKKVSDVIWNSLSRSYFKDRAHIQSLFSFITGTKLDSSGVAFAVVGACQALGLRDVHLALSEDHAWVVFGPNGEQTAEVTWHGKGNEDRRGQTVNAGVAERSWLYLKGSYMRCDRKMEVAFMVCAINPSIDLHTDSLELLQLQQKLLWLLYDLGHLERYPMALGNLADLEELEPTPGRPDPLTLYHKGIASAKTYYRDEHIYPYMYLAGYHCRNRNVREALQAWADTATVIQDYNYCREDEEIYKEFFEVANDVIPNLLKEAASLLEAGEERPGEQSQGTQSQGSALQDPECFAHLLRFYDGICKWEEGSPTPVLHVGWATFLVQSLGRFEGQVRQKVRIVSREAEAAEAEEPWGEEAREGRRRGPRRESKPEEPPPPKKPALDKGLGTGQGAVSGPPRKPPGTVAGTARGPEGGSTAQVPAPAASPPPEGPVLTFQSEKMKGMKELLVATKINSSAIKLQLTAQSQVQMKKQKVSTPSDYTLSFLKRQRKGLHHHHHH
The experiment in a line: Menin/MLL homogenous time-resolved fluorescence (HTRF) assay. Format: binding. The note with it: 30 min incubation. On the procedure:
1) Menin/MLL Homogenous Time-Resolved Fluorescence (HTRF) Assay
To an untreated, white 384-well microtiter plate was added 40 nL 200× test compound in DMSO and 4 μL 2× terbium chelate-labeled menin (vide infra for preparation) in assay buffer (40 mM Tris.HCl, pH 7.5, 50 mM NaCl, 1 mM DTT (dithiothreitol) and 0.05% Pluronic F-127). After incubation of test compound and terbium chelate-labeled menin for 30 min at ambient temperature, 4 μL 2× FITC-MBM1 peptide (FITC-β-alanine-SARWRFPARPGT-NH2 (SEQ ID NO: 3)) (“FITC” means fluorescein isothiocyanate) in assay buffer was added, the microtiter plate centrifuged at 1000 rpm for 1 min and the assay mixtures incubated for 15 min at ambient temperature. The relative amount of menin FITC-MBM1 complex present in an assay mixture is determined by measuring the homogenous time-resolved fluorescence (HTRF) of the terbium/FITC donor/acceptor fluorophore pair using an EnVision microplate reader (ex. 337 nm/terbium em. 490 nm/FITC em. 520 nm) at ambient temperature. The degree of fluorescence resonance energy transfer (the HTRF value) is expressed as the ratio of the fluorescence emission intensities of the FITC and terbium fluorophores (F^em 520 nm/F^em 490 nm). The final concentrations of reagents in the binding assay are 200 pM terbium chelate-labeled menin, 75 nM FITC-MBM1 peptide and 0.5% DMSO in assay buffer. Dose-response titrations of test compounds are conducted using an 11 point, four-fold serial dilution scheme, starting typically at 10 μM.
Compound potencies were determined by first calculating % inhibition at each compound concentration according to equation 1:
% inhibition=((HC−LC)−(HTRF^compound−LC))/(HC−LC))*100 (Eqn 1)
Where LC and HC are the HTRF values of the assay in the presence or absence of a saturating concentration of a compound that competes with FITC-MBM1 for binding to menin, and HTRF^compound is the measured HTRF value in the presence of the test compound. HC and LC HTRF values represent an average of at least 10 replicates per plate.
% inhibition=Bottom+(Top−Bottom)/(1+10^((logIC50−log[cmpd])*h)) (Eqn 2)
Where Bottom and Top are the lower and upper asymptotes of the dose-response curve, respectively, IC50 is the concentration of compound that yields 50% inhibition of signal and h is the Hill coefficient. IC50 values below 0.1 nM in the HTRF assay were reported as 0.1 nM in the Table below (detection limit).
Preparation of Terbium cryptate labeling of Menin: Menin (a.a 1-610-6xhis tag (“6xhis tag” disclosed as SEQ ID NO: 2), 2.3 mg/mL in 20 mM Hepes (2-[4-(2-Hydroxyethyl)-1-piperazinyl]ethane sulfonic acid), 80 mM NaCl, 5 mM DTT (Dithiothreitol), pH 7.5) was labeled with terbium cryptate as follows. 200 μg of Menin was buffer exchanged into 1× Hepes buffer. 6.67 μM Menin was incubated with 8-fold molar excess NHS (N-hydroxysuccinimide)-terbium cryptate for 40 minutes at room temperature. Half of the labeled protein was purified away from free label by running the reaction over a NAP5 column with elution buffer (0.1 M Hepes, pH 7+0.1% BSA (bovine serum albumin)). The other half was eluted with 0.1 M phosphate buffered saline (PBS), pH7. 400 μl of eluent was collected for each, aliquoted and frozen at −80° C. The final concentration of terbium-labeled Menin protein was 115 μg/mL in Hepes buffer and 85 μg/mL in PBS buffer, respectively.
Background: Time-resolved FRET reads energy transfer from a long-lived donor to a nearby acceptor.

Consider `CNC(=O)c1ccnc(N[C@H]2C[C@@H]([C@@H](C(C)C)N3CC4(CCN(c5ncnnc5Oc5ccc(F)cc5-c5cncnc5C5CC5)C4)C3)C2)n1` (single isomer, unassigned) [Compound 452], for which the IC50 in the test with MOLM14 cells came to 20 nM; in test [1], 0.11 nM.
On to `Cc1ncc(-c2cc(F)ccc2Oc2nncnc2N2CCC3(C2)CN([C@@H](C(C)C)[C@H]2C[C@@H](N4C[C@@H]5[C@H](C4)[C@H]5NC(=O)C4CC4)C2)C3)c(C2CC2)n1` [Compound 385], for which the IC50 is less than 1.8 nM in the test on MOLM14 cells and 0.026 nM in test [1].
For the molecule `Cc1ncc(-c2cc(F)ccc2Oc2nncnc2N2CCC3(C2)CN([C@@H](C(C)C)[C@H]2C[C@@H](N4CCC5(CN(C(=O)C6CC6)C5)C4)C2)C3)c(C2CC2)n1` [Compound 380], the IC50 in the test on MOLM14 cells was 3.7 nM; in test [1], 0.16 nM.
The like results for `CC(C)[C@H]([C@H]1C[C@@H](Nc2ncc(C(N)=O)s2)C1)N1CC2(CCN(c3ncnnc3Oc3ccc(F)cc3-c3cncnc3C3CC3)C2)C1` (single isomer, unassigned) [Compound 446] were, in that order, 7 nM and roughly 0.1 nM.
Taken in the same sequence, the figures for `COC1(C)CCN([C@H]2C[C@@H]([C@H](C(C)C)N3CC4(CCN(c5ncnnc5Oc5ccc(F)cc5-c5nnccc5C5CC5)C4)C3)C2)C1` (mixture of isomers) [Compound 275] were 7 nM and 0.1 nM.
Taken in the same sequence, the figures for `CC(C)[C@H]([C@H]1C[C@@H](Nc2nnc(N)s2)C1)N1CC2(CCN(c3ncnnc3Oc3ccc(F)cc3-c3cncnc3C3CC3)C2)C1` (single isomer, unassigned) [Compound 447] were 4 nM and 0.15 nM.
Regarding `CC(C)C([C@H]1C[C@@H](N2CC[C@@](C)(O)C2)C1)N1CC2(CCN(c3ncnnc3Oc3ccc(F)cc3-c3cnccc3C3CC3)C2)C1` (mixture of isomers) [Compound 137], the IC50 was determined as 7 nM in the test with MOLM14 cells and 0.2 nM in test [1].
The like results for `CNC(=O)c1cc(N[C@H]2C[C@@H]([C@@H](C(C)C)N3CC4(CCN(c5ncnnc5Oc5ccc(F)cc5-c5cncnc5C5CC5)C4)C3)C2)ccn1` (single isomer, unassigned) [Compound 451] were, in that order, 11 nM and 0.15 nM.
The like results for `CC(=O)Nc1cncc(N[C@H]2C[C@@H](C(C(C)C)N3CC4(CCN(c5ncnnc5Oc5ccc(F)cc5-c5cncnc5C5CC5)C4)C3)C2)c1` (single isomer, unassigned) [Compound 410] were, in that order, 19 nM and 0.11 nM.
Taken in the same sequence, the figures for `CC(C)[C@@H]([C@H]1C[C@@H](N2C[C@H]3COC[C@H]3C2)C1)N1CC2(CCN(c3ncnnc3Oc3ccc(F)cc3-c3cncnc3C3CC3)C2)C1` (single isomer, unassigned) [Compound 244] were 130 nM and 1.6 nM.
As for `CC(C)[C@H]([C@H]1C[C@@H](Nc2n[nH]c3ncccc23)C1)N1CC2(CCN(c3ncnnc3Oc3ccc(F)cc3-c3cncnc3C3CC3)C2)C1` (single isomer, unassigned) [Compound 448], the IC50 stood at 4.6 nM in the test with MOLM14 cells and 0.18 nM in test [1].
Taken in the same sequence, the figures for `CO[C@H]1[C@@H]2CN([C@H]3C[C@@H]([C@H](C(C)C)N4CC5(CCN(c6ncnnc6Oc6ccc(F)cc6-c6cnncc6C6CC6)C5)C4)C3)C[C@@H]21` (single isomer, unassigned) [Compound 282a] were 280 nM and 2.4 nM.
Taken in the same sequence, the figures for `CC(C)[C@H]([C@H]1C[C@@H](N2CCC3(CCO3)C2)C1)N1CC2(CCN(c3ncnnc3Oc3ccc(F)cc3-c3cncnc3C3CC3)C2)C1` (single isomer, unassigned) [Compound 212] were 8 nM and 0.2 nM.
Taken in the same sequence, the figures for `CC(C)[C@H]([C@H]1C[C@@H](N2CC3(CCS(=O)(=O)CC3)C2)C1)N1CC2(CCN(c3ncnnc3Oc3ccc(F)cc3-c3cncnc3C3CC3)C2)C1` (single isomer, unassigned) [Compound 249] were 9 nM and 0.1 nM.
For `Cc1ncc(-c2cc(F)ccc2Oc2nncnc2N2CCC3(C2)CN([C@@H](C(C)C)[C@H]2C[C@@H](N4CC5(CN(C(=O)C6CC6)C5)C4)C2)C3)c(C2CC2)n1` [Compound 392], the IC50 in the test with MOLM14 cells is 2 nM; in test [1] it was 0.11 nM.
The like results for `CNC(=O)[C@H]1CCN([C@H]2C[C@@H]([C@H](C(C)C)N3CC4(CCN(c5ncnnc5Oc5ccc(F)cc5-c5cnc(C)nc5C5CC5)C4)C3)C2)C1` [Compound 393] were, in that order, less than 1.8 nM and 0.13 nM.
Taken in the same sequence, the figures for `CNC(=O)c1cnc(N[C@H]2C[C@@H]([C@H](C)N3CC4(CCN(c5ncnnc5Oc5ccc(F)cc5-c5cncnc5C5CC5)C4)C3)C2)s1` (single isomer, unassigned) [Compound 455] were 24 nM and 0.14 nM.
As for `Cc1ncc(-c2cc(F)ccc2Oc2nncnc2N2CCC3(C2)CN([C@@H](C(C)C)[C@H]2C[C@@H](N4CC[C@H](NC(=O)C5CC5)C4)C2)C3)c(C2CC2)n1` [Compound 387], the half-maximal inhibitory concentration (IC50) is less than 1.8 nM in the test with MOLM14 cells and 0.026 nM in test [1].

What is called IC50 is the concentration that inhibits the measured activity by half.
